Values of other authors, collected in US20190224051A1, “ETNESS INDICATOR WITH HARDENERS AND CRYSTALLIZERS” (The Procter & Gamble Company, priority 2018, published 2019).

Conditions: Table 2, stabilizers

pKa (1): 1.5 | pKa (2): 2.4 | pKa (4): 9.2
Compound: O=P(O)(O)OP(=O)(O)O [Pyrophosphoric Acid]
